Each block holds one compound with its values, some of them ahead of it.
Assay: In vivo dog pharmacokinetics
Details: for AUC0-72 h: beagle dogs N=3
[1] = plasma level of the labelled analyte after oral dose of Compound B (9.7 mg-eq/kg), powder in capsule

AUC0-72 h for Compound A in plasma, dosing with Compound B compared with equivalent dose of Compound A (beagle dogs, powder in capsule, after dosing with Compound B versus Compound A): higher
Compound: Cn1ccc2c([C@H](Nc3cc(Cl)c4ncc(C#N)c(NCC(C)(C)C)c4c3)c3cn(C45CC(C4)C5)nn3)cccc2c1=O [Compound A]

AUC0-72 h [1]: BLQ
Compound: Cn1ccc2c([C@@H](c3cn(C45CC(C4)C5)nn3)N(C(=O)OCOP(=O)(O)O)c3cc(Cl)c4ncc(C#N)c(NCC(C)(C)C)c4c3)cccc2c1=O [Compound B]

AUC0-72 h (plasma level of the labelled analyte after oral dose of Compound C (3 mg-eq/kg), 3 mg/mL solution): BLQ
Compound: Cn1ccc2c([C@@H](c3cn(C45CC(C4)C5)nn3)N(C(=O)OCCCOP(=O)(O)O)c3cc(Cl)c4ncc(C#N)c(NCC(C)(C)C)c4c3)cccc2c1=O [Compound C]
In vivo conversion after dosing (beagle dogs, Compound C solution formulation, 72 hour period): converted in vivo to both Compound D and Compound A in measurable amounts

AUC0-72 h [1]: BLQ
Compound: Cn1ccc2c([C@@H](c3cn(C45CC(C4)C5)nn3)N(C(=O)OCO)c3cc(Cl)c4ncc(C#N)c(NCC(C)(C)C)c4c3)cccc2c1=O [Intermediate A]

Source: US12398160B2, “Cot modulators and methods of use thereof” (Gilead Sciences, Inc., priority 2019, dated 2025)
